{
  "source": "patent US20110256236A1",
  "about": "(priority 2010, published 2011)",
  "key": {"HL-60": {"system": "HL-60", "conditions": "HL-60 cell line; Du et al. 2005; read-out: IC50 (inhibitory concentration of 50%), tumor growth; cited from earlier work"}, "KG-1a cells": {"system": "KG-1a cells", "conditions": "48 hours", "method": "The KG-1a cells, which are an early phenotype of human acute myeloid leukemia (American Type Culture Collection, Manassas, Va.), were grown in complete growth medium [Iscove's Modified Dulbeco's Medium (American Type Culture Collection, Manassas, Va.)] supplemented with 20% fetal bovine serum (Sigma-Aldrich, UK) and 1% Penicillin-Streptomycin (GIBCO Invitrogen Corporation, Carlsbad, Calif.) at 37° C. in a humidified 5% CO2 incubator.\nThe KG-1a cells were cultured for 48 hours in 12-well tissue culture plates, each containing complete growth medium at a concentration of 2×10^6 cells 1 ml, and each well contained a total volume of two milliliters. Thalidomide (TOCRIS Bioscience, Ellisville, Mo.) was added at a concentration of 5 mg/L whether used alone or in combination with other chemotherapeutic agents. Interleukin-2 (Proleukin®, Aldesleuken for injection) (CHIRON Therapeutics, Emeryville, Calif.) was added at a concentration of 200 IU/ml whether used alone or in combination with thalidomide or arsenic trioxide. Arsenic trioxide (Sigma-Aldrich, Inc., St. Louis, Mo.) was added at concentrations of 2 μM and 4 μM with and without 100 μM of ascorbic acid in the first flow cytometry study, and at 4 μM in the rest of the studies either alone or combined with thalidomide and interleukin-2. A control culture containing neither thalidomide nor interleukin-2 nor arsenic trioxide was set up in conditions otherwise identical. All the control and treated cultures were set in duplicate and incubated for 48 hours at 37° C. in a humidified 5% CO2 incubator.\nThe detection of apoptosis and necrosis by Annex in V-FITC assay using flow cytometric analysis was carried out as described in the Annexin V-FITC Apoptosis Detection Kit (BioVision, Inc., Mountain View, Calif.) manual. Staurosporine (Sigma-Aldrich, Inc., St. Louis, Mo.) was used as a positive control at a concentration of 10 μM and was incubated only for 24 hours with the cells. Briefly, after the KG-1a cells were incubated for 48 hours, they were harvested by centrifugation at 1,300 RPM for five minutes. Cells were resuspended in 500 μl of 1× binding buffer. Then 5 μl of Annexin V-FITC and 5 μl of propidium iodide (PI) were added to all tubes (except the negative control which contained no staining and no treatment; for the Annexin V-FITC controls only the Annexin V-FITC was added; and for the Propidium Iodide control only PI was added). All tubes were incubated at room temperature for five minutes in the dark.\nResults were subjected to one way ANOVA. Statistical significant differences between means was set at p<0.05."}, "MCF-7": {"system": "MCF-7", "conditions": "MCF-7 cell line; Du et al. 2005; read-out: IC50 (inhibitory concentration of 50%), tumor growth; cited from earlier work"}, "APL cell line NB4": {"system": "APL cell line NB4", "set-up": "unit not given here", "conditions": "APL studies, cited from earlier work"}, "PML/RAR-α fusion protein": {"molecular_target": "T1, PML/RAR-α fusion protein (Homo sapiens, UniProt P10276+P29590)", "T1 construct": "host or cells: NB4 cells (endogenous t(15;17) fusion)", "T1 sequence (P29590+P10276 with tags, fused parts or gaps)": "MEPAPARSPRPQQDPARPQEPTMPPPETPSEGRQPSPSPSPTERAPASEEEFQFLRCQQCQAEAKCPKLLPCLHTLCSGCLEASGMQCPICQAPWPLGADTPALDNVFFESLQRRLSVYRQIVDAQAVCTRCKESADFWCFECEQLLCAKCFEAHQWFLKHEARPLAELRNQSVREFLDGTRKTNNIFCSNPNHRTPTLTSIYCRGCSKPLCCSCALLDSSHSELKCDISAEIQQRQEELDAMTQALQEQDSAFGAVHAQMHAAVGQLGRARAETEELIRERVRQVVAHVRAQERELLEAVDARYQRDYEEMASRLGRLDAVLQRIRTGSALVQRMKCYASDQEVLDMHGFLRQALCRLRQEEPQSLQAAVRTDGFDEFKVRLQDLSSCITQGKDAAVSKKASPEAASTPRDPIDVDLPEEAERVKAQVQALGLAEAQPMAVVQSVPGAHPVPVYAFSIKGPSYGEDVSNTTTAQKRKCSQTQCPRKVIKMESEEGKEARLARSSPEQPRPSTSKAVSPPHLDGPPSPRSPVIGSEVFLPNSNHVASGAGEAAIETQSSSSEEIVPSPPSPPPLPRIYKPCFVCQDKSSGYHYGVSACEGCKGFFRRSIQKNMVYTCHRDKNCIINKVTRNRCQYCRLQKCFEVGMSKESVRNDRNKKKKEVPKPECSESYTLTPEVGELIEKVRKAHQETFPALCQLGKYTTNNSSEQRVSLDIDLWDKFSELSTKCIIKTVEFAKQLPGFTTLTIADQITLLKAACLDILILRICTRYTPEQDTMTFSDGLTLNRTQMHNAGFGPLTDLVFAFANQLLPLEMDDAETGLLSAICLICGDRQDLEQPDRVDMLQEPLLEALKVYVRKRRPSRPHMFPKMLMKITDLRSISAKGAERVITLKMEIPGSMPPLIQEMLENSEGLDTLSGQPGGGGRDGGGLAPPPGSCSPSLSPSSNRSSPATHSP", "set-up": "unit not given here", "conditions": "NB4 cells; cited from earlier work"}, "[1]": {"conditions": "thalidomide 5 mg/L, As2O3 4 μM, IL-2 200 IU/ml, alone or combined"}, "[2]": {"conditions": "As2O3 2 μM, with or without ascorbic acid 100 μM"}, "[3]": {"conditions": "As2O3 4 μM, with or without ascorbic acid 100 μM"}},
  "note": "Like-named read-outs stand apart in the source and are kept apart here.",
  "data": [
    {"compound": "O=C1CCC(N2C(=O)c3ccccc3C2=O)C(=O)N1", "note": "(stereo not drawn) [Thalidomide, α-(N-phthalimido) glutarimide]", "values": [
      {"measurement": "IC50", "setting": "HL-60", "value": "22.1 ± 2.15", "unit": "µM"},
      {"measurement": "% Early apoptosis", "setting": "KG-1a cells; [1]", "value": 7.92, "unit": "%"},
      {"measurement": "% Late apoptosis", "setting": "KG-1a cells; [1]", "value": 49.385, "unit": "%"},
      {"measurement": "% Necrosis", "setting": "KG-1a cells; [1]", "value": 1.155, "unit": "%"},
      {"measurement": "% Late apoptosis", "setting": "KG-1a cells; thalidomide 5 mg/L, As2O3 4 μM, IL-2 200 IU/ml, alone or combined, listed as thalidomide", "value": 49.39, "unit": "%"},
      {"measurement": "IC50", "setting": "MCF-7", "value": "18.4 ± 2.34", "unit": "µM"}
    ]},
    {"compound": "arsenic trioxide [As2O3]", "values": [
      {"measurement": "% Early apoptosis", "setting": "KG-1a cells; [2]", "value": 14.50, "unit": "%"},
      {"measurement": "% Late apoptosis", "setting": "KG-1a cells; [2]", "value": 6.88, "unit": "%"},
      {"measurement": "% Live Cells", "setting": "KG-1a cells; [2]", "value": 75.94, "unit": "%"},
      {"measurement": "% Necrotic Cells", "setting": "KG-1a cells; [2]", "value": 2.68, "unit": "%"},
      {"measurement": "% Early apoptosis", "setting": "KG-1a cells; [3]", "value": 20.87, "unit": "%"},
      {"measurement": "% Late apoptosis", "setting": "KG-1a cells; [3]", "value": 8.31, "unit": "%"},
      {"measurement": "% Live Cells", "setting": "KG-1a cells; [3]", "value": 69.56, "unit": "%"},
      {"measurement": "% Necrotic Cells", "setting": "KG-1a cells; [3]", "value": 1.26, "unit": "%"},
      {"measurement": "% Early apoptosis", "setting": "KG-1a cells; [1]", "value": 10.095, "unit": "%"},
      {"measurement": "% Late apoptosis", "setting": "KG-1a cells; [1]", "value": 16.965, "unit": "%"},
      {"measurement": "% Necrosis", "setting": "KG-1a cells; [1]", "value": 0.59, "unit": "%"},
      {"measurement": "cytotoxic effect (in words)", "setting": "KG-1a cells; [1]", "value": "modest cytotoxic effect"},
      {"measurement": "% Late apoptosis", "setting": "KG-1a cells; thalidomide 5 mg/L, As2O3 4 μM, IL-2 200 IU/ml, alone or combined, listed as Arsenic trioxide", "value": 16.97, "unit": "%"},
      {"measurement": "concentrations inducing partial differentiation", "setting": "APL cell line NB4; low concentrations", "value": "0.1-0.5"},
      {"measurement": "concentrations inducing apoptosis", "setting": "APL cell line NB4; relatively high concentrations", "value": "0.5-2.0"},
      {"measurement": "concentrations inducing degradation of PML/RAR-α (and wild type PML)", "setting": "PML/RAR-α fusion protein", "value": "0.5-2.0"}
    ]}
  ]
}
